Read-outs that look alike come from different tables or passages of the source.
Tests used:
[1] = solubility in water; format: physicochemical; conditions: in water at 25° C. and pH 6
Text: (§1) The amounts of residual solvent present in the final aqueous phase are removed by extraction with 2 liters of ethyl acetate. […] The aqueous phase is then concentrated by evaporation under vacuo, after which it is lyophilized. The structure of the product was verified by elemental analysis and proton NMR spectroscopy.
(b) The lactyl-L-tyrosine ethyl ester is purified and deesterified according to the procedure described in Example 1 in relation to L-malyl-L-tyrosine ethyl ester, to obtain L-lactyl-L-tyrosine monosodium salt.

[2] = solubility in ethyl acetate; format: physicochemical; conditions: extraction of the aqueous phase with ethyl acetate
Text: as §1

[3] = read-out: solubility in water, equivalent molar

With `C[C@H](O)C(=O)N[C@@H](Cc1ccc(O)cc1)C(=O)[O-].[Na+]` the solubility ([1]; read-out: solubility in water) was at least 330 mg/mL and the solubility [1, 3] was at least 1200 mM.

In the case of `O=C([O-])C[C@H](O)C(=O)N[C@@H](Cc1ccc(O)cc1)C(=O)[O-].[Na+].[Na+]` [L-malyl-L-tyrosine disodium salt], the solubility ([1]; read-out: solubility in water) is reported as 820 mg/mL, the solubility [1, 3] is reported as 2400 mM and the “solubility in ethyl acetate” value [2] is reported as “not soluble in ethyl acetate”.

— patent US4956489A (Bioeurope, priority 1987, dated 1990)
